Experiments:
Assay type in all cases: cell-based, Human
[1] = test system: monocyte TNFα production induced by anti-CD3 antibody stimulated T-cells (Ttcr cells); experiment: Ttcr cell-induced TNFα production by monocytes (co-culture, ELISA)
Procedure: Human peripheral blood T cells and monocytes were isolated from single donor plateletpheresis residues (purchased from the North London Blood Transfusion service, Colindale, GB). Mononuclear cells were isolated by Ficoll/Hypaque centrifugation (specific density 1.077 g/ml, Nycomed Pharma AS, Oslo, Norway), prior to cell separation in a Beckman JE6 elutriator. Elutriation was performed in culture medium containing 1% heat-inactivated foetal calf serum (FCS) using methods known in the art (see Sebbag et al., 1997, Parry et al., 1997). T cell and monocyte purity were assessed by flow cytometry (see Sebbag et al., 1997).
Ttcr cells: Ttcr cells were prepared from elutriation enriched T cells by resuspending the cells at a density of 10^6 cells/ml in RPMI 1640 (containing 10% heat inactivated AB+ human serum (Biowhittaker, UK). Following resuspension, the cells were incubated (at 37° C. in a 5% CO2/95% humidified incubator) in 6-well culture plates with immobilised anti-CD3 monoclonal antibodies for 24 hours (OKT3, ATCC, Maryland, USA), the antibodies having previously been coated on to the 6-well culture plates at 10 μg/ml (overnight at 4° C.).
Following completion of the culture period, the Tck and Ttcr cells were harvested and washed three times in RPMI medium containing 1% heat-inactivated fetal calf serum (FCS), prior to fixation for 1 minute at 0° C. in PBS containing 0.05% glutaraldehyde, and neutralized with an equivalent volume of T lymphocyte neutralizing buffer containing 0.2 M glycine. […]
(§1) Reagents for the TNFα ELISA were provided by Dr. W. Buurman (Rijks Universiteit Limburg, Maastricht, Netherlands). […] The rabbit polyclonal antibody was detected using a peroxidase-conjugated goat anti-rabbit IgG (H+L) (Jackson Immunoresearch Laboratories Inc., Westgrove, PE, USA) followed by an appropriate substrate. […]
(§2) Monocytes were treated with M-CSF for 2 days as described above, infected with adenovirus containing either an insert encoding IκBα (AdvIκBα) or no insert (Adv0). The effect of IκBα over-expression on T cell-induced monocyte (ratio 5:1) TNFα production was then determined.

[2] = test system: monocyte TNFα production induced by cytokine stimulated T cells (Tck cells); experiment: Tck cell-induced TNFα production by monocytes (co-culture, ELISA); conditions: T cells stimulated with IL-2, IL-6 and TNFα; results not shown
Procedure: Human peripheral blood T cells and monocytes were isolated from single donor plateletpheresis residues (purchased from the North London Blood Transfusion service, Colindale, GB). Mononuclear cells were isolated by Ficoll/Hypaque centrifugation (specific density 1.077 g/ml, Nycomed Pharma AS, Oslo, Norway), prior to cell separation in a Beckman JE6 elutriator. Elutriation was performed in culture medium containing 1% heat-inactivated foetal calf serum (FCS) using methods known in the art (see Sebbag et al., 1997, Parry et al., 1997). T cell and monocyte purity were assessed by flow cytometry (see Sebbag et al., 1997). […]
as §1, §2

[3] = test system: monocyte TNFα production induced by RA CD3+ enriched cells; experiment: Monocyte TNFα production induced by fixed RA synovial CD3+ enriched T cells; conditions: for TNFα: LY294002 50 μM 30 min, Wortmannin 500 nM 30 min, AKTA 5 mM 30 min, Rapamycin 10 μM 60 min, untreated control 686 ± 59, mean ±SD; for TNFα / Percent change: RA T cells:monocytes 5:1, 18 h; for Percent change: change of TNFα versus untreated control, LY294002 50 μM, Wortmannin 500 nM, Rapamycin 10 μM
Procedure: Rheumatoid arthritis (RA) mononuclear cells were obtained from synovial tissue specimens provided by the Rheumatology Clinic, Charing Cross Hospital, London, UK. Tissue was teased into small pieces and digested in medium containing 0.15 mg/ml DNase type 1 (Sigma, UK) and 5 mg/ml collagenase (Roche, UK) for 1 to 2 hours at 37° C. After passing cells through nylon mesh to exclude cell debris, cells were washed and resuspended in RPMI medium (Biohittaker, Verviers, Belgium) (containing 10% heat-inactivated FCS) at a density of 1×10^6 cells/ml and used immediately.
CD3+ enriched cells were isolated from RA synovial mononuclear cells by direct, positive selection using Dynabeads (Dynal UK Ltd, Wirral, UK) coated with anti-CD3 monoclonal antibodies (anti-CD3 mAbs). Briefly, mononuclear cells (1×10^7) were cultured with 100 μl anti-CD3 mAb-coated Dynabeads for 20 minutes at 4° C. under constant rotation. Cells attached to beads were isolated using a magnetic particle concentrator (Dynal, Merseyside, UK) and cultured for 6 hours at 37° C. Detached cells were removed from magnetic beads and washed three times using the magnetic particle concentrator.
This technique allowed for isolation of CD3+ cells, yielding cells of high purity (>99%) and viability (>95%). Following isolation, CD3+ enriched cells were washed three times in RPMI medium containing 1% heat-inactivated FCS, fixed for 1 minute at 0° C. in phosphate-buffered saline (PBS) containing 0.05% glutaraldehyde, and neutralized with an equivalent volume of T lymphocyte neutralizing buffer containing 0.2 M glycine. Following a further three washes, the fixed CD3+ cells were resuspended (at a concentration of 2×10^6 cell/ml) in RPMI medium containing 5% heat-inactivated FCS, and stored for up to 7 days at 4° C. until used. Prior to use, CD3+ enriched cells were washed twice in complete medium.
Monocytes were cultured at 1×10^6 cells/ml in RPMI 1640 medium (containing 5% heat-inactivated FCS) in round-bottomed 96-well culture plates (Nunc Life Technologies Ltd., Paisley, Scotland) in the presence of fixed T cells at varying T-cell/monocyte ratios ranging from 1:1 to 7:1 (as indicated). In some experiments, a semi-permeable membrane insert (Nunc Life Technologies Ltd., Paisley, Scotland) was fitted into the culture wells to physically separate the monocytes from the T cells. In all experiments, efficient fixation of T cells was tested by incubating an aliquot of T-cells (7×10^6 cells/ml) in the absence of monocytes and assaying the amount of TNFα released by the cells under these conditions. Lipopolysaccharide (LPS, 10 ng/ml) was included in experiments as a positive control for monocyte cytokine production.
Reagents for the TNFα ELISA were provided by Dr. W. Buurman (Rijks Universiteit Limburg, Maastricht, Netherlands). The ELISA was performed using immobilized anti-TNFα mAb 61E71. and developed using a rabbit anti-TNFα polyclonal antibody. An alternative ELISA for TNFα is commercially available from Pharmingen. The rabbit polyclonal antibody was detected using a peroxidase-conjugated goat anti-rabbit IgG (H+L) (Jackson Immunoresearch Laboratories Inc., Westgrove, PE, USA) followed by an appropriate substrate. The sensitivity range of the assay was 1.6 to 5000 pg/ml.
For monocyte/T-cell co-culture experiments, monocytes were cultured with relevant enzyme inhibitors at 37° C. for varying periods of time (see legend to Table 2) prior to co-culture with fixed T-cells for 18 hours. Supernatants were harvested and assayed for presence of TNFα by ELISA. Cell suspensions were taken for determination of cell viability. […]
The effect of wortmannin and LY294002 was also studied on monocyte TNFα production induced by RA CD3+ ve enriched cells (see Table 2). Normal monocytes isolated by elutriation were treated with selective enzyme inhibitors for the designated times prior to co-culture with fixed rheumatoid CD3+ T cells at a ratio 5:1 (T cells to monocytes) for 18 hours. […]

Structure (SMILES) | effect on monocyte TNFα production induced by anti-CD3 antibody stimulated T cells ([1]; results not shown) | effect on monocyte TNFα production induced by cytokine stimulated T cells [2] | effect on TNFα production in monocytes stimulated by RA T-cells ([3]; AKTA 5 mM, rapamycin 10 μM, T cells:monocytes 5:1) | TNFα [3] | Percent change ([3]; AKTA 5 mM) | IC50 ([1]; Homo sapiens, Monocyte, T cells:monocytes 5:1, 18 h co-culture, read-out: IC50, inhibition of monocyte TNFα production induced by Ttcr cells) | TNFα ([3]; listed as wortmannin)
CO[C@H]1C[C@@H]2CC[C@@H](C)[C@@](O)(O2)C(=O)C(=O)N2CCCC[C@H]2C(=O)O[C@H]([C@H](C)C[C@@H]2CC[C@@H](O)[C@H](OC)C2)CC(=O)[C@H](C)/C=C(\C)[C@@H](O)[C@@H](OC)C(=O)[C@H](C)C[C@H](C)/C=C/C=C/C=C/1C [Rapamycin, rapamycin] | no effect | no effect | no significant effect | 399 ± 21 pg/mL | −42% |  | 
COC[C@H]1OC(=O)c2coc3c2[C@@]1(C)C1=C(C3=O)[C@@H]2CCC(=O)[C@@]2(C)C[C@H]1OC(C)=O [Wortmannin, wortmannin] |  |  |  | 7333 ± 304 pg/mL | +968% | 0.05 nM | 7333 ± 304 pg/mL

Source: US7390630B1, “Method of identifying a compound that selectively inhibits cytokine-stimulated T cell induced production of TNF-alpha by monocytes” (Mathilda and Terence Kennedy Institute of Rheumatology Trust, priority 1999, dated 2008)
